For orientation: IC50 means the concentration that gives 50% inhibition. What is called melting point is the temperature, or range, at which the solid turns liquid.

Results on 26 compounds are retold here after patent publication US8349824B2, “Triazolopyridine compounds” (Hoffmann-La Roche Inc., priority 2010, dated 2013).

For one data set, the target named is T1, human PDE10A full length (Homo sapiens, UniProt Q9Y233).
T1 construct: purchased Enzo Life Science, Lausen, Switzerland SE-534
The data set is described as follows: PDE10A Scintillation Proximity Assay (SPA), human PDE10A full length assay. The class given is biochemical. Particulars: 50 nM cGMP + 50 nM [3H]-cGMP, 20 minutes at room temperature, read-out: PDE10A inhibition IC50. In short, it runs like this: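 IC50 values come from radioactive counts across a range of inhibitor concentrations, using YSi-SPA beads in zinc sulphate as stop reagent. Full-length enzyme hydrolysed 50 nM cGMP with 50 nM [3H]-cGMP for 20 min at room temperature in pH 7.5 HEPES buffer containing 10 mM MgCl2 and 0.05 mg/ml BSA.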
For orientation: In a scintillation proximity assay essentially only radioactivity close to the scintillant gives light.

T1 sequence (Q9Y233 1-779 isoform Q9Y233-1): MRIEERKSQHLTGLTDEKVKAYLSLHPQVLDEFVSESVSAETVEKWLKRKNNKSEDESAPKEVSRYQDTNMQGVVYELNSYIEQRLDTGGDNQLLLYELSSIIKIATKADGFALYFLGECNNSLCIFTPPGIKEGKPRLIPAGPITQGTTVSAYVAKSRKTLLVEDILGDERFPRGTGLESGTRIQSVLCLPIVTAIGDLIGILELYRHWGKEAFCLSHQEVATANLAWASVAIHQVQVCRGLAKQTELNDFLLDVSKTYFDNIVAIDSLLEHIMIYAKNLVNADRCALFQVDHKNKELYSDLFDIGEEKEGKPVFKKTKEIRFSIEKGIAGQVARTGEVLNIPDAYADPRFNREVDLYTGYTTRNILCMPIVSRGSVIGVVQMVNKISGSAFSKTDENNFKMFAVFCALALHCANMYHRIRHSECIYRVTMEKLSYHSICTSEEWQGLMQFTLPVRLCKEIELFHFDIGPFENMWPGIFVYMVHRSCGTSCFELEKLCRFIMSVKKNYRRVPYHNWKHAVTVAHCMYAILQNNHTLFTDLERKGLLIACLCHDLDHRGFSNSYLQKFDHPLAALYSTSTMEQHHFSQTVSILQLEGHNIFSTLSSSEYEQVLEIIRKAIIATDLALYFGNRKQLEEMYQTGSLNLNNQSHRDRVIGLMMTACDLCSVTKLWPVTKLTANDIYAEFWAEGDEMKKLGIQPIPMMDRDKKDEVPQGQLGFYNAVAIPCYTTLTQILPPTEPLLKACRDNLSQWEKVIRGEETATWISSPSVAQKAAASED

`Cn1ncc(C(=O)N2CC(F)C2)c1C(=O)Nc1ccn2nc(-c3ccccc3)nc2c1` [Example 25, 4-(3-Fluoroazetidine-1-carbonyl)-1-methyl-N-(2-phenyl-[1,2,4]triazolo[1,5-a]pyridin-7-yl)-1H-pyrazole-5-carboxamide] displayed a melting point of 259 to 262 °C. At human PDE10A full length, the IC50 amounted to 0.39 nM.
The compound `CCOC(=O)c1cnn(C)c1C(=O)Nc1ccn2nc(-c3ccccc3)nc2c1` [Example 28, ethyl 1-methyl-5-(2-phenyl-[1,2,4]triazolo[1,5-a]pyridin-7-ylcarbamoyl)-1H-pyrazole-4-carboxylate] had a melting point of 242 to 243 °C. For the same compound, the IC50 at human PDE10A full length was found to be 7.3 nM.
For `Cn1ncc(C(=O)N2CCOCC2)c1C(=O)Nc1ccn2nc(N3CCOCC3)nc2c1` [Example 29, 1-Methyl-4-(morpholine-4-carbonyl)-N-(2-morpholino-[1,2,4]triazolo[1,5-a]pyridin-7-yl)-1H-pyrazole-5-carboxamide], the melting point was in the range of 206 to 208 °C. Also, the IC50 at human PDE10A full length turned out to be 40.5 nM.
`Cn1ncc(C(=O)N2CCC2)c1C(=O)Nc1cc2nc(-c3ccccc3)nn2cc1F` [Example 30, 4-(Azetidine-1-carbonyl)-N-(6-fluoro-2-phenyl-[1,2,4]triazolo[1,5-a]pyridin-7-yl)-1-methyl-1H-pyrazole-5-carboxamide] showed a melting point above 250 °C. For the same compound, on human PDE10A full length, the concentration for half-maximal inhibition (IC50) amounted to 1.27 nM.
As to `Cn1ncc(C(=O)N2CCCC2)c1C(=O)Nc1cc2nc(-c3ccccc3)nn2cc1F` [Example 31, N-(6-fluoro-2-phenyl-[1,2,4]triazolo[1,5-a]pyridin-7-yl)-1-methyl-4-(pyrrolidine-1-carbonyl)-1H-pyrazole-5-carboxamide], the melting point lay within 250 to 251 °C. In addition, on human PDE10A full length, the IC50 came out at 0.48 nM.
The compound `Cn1ncc(C(=O)N2CCOCC2)c1C(=O)Nc1cc2nc(-c3ccccc3)nn2cc1F` [Example 32, 2-Methyl-4-(morpholine-4-carbonyl)-2H-pyrazole-3-carboxylic acid (6-fluoro-2-phenyl-[1,2,4]triazolo[1,5-a]pyridin-7-yl)-amide] had a melting point of 224 to 225 °C. For the same compound, the IC50 on human PDE10A full length turned out to be 0.98 nM.
In turn, `CC(C)c1nc2cc(NC(=O)c3c(C(=O)N4CCCC4)cnn3C)ccn2n1` [Example 34, N-(2-isopropyl-[1,2,4]triazolo[1,5-a]pyridin-7-yl)-1-methyl-4-(pyrrolidine-1-carbonyl)-1H-pyrazole-5-carboxamide] came in with a melting point of 141 to 143 °C. Moreover, the half-inhibitory concentration (IC50) at human PDE10A full length stood at 28.3 nM.
The matching figures for `CN(C)c1nc2cc(NC(=O)c3c(C(=O)N4CCC4)cnn3C)ccn2n1` [Example 35, 4-(Azetidine-1-carbonyl)-N-(2-(dimethylamino)-[1,2,4]triazolo[1,5-a]pyridin-7-yl)-1-methyl-1H-pyrazole-5-carboxamide]: 240 to 241 °C and 7.39 nM.
Consider `CN(C)c1nc2cc(NC(=O)c3c(C(=O)N4CCOCC4)cnn3C)ccn2n1` [Example 36, N-(2-(dimethylamino)-[1,2,4]triazolo[1,5-a]pyridin-7-yl)-1-methyl-4-(morpholine-4-carbonyl)-1H-pyrazole-5-carboxamide], for which the melting point was 196 to 198 °C. Further, the concentration for half-maximal inhibition (IC50) on human PDE10A full length came out at 43.5 nM.
`CN(C)c1nc2cc(NC(=O)c3c(C(=O)N4CCCC4)cnn3C)ccn2n1` [Example 37, N-(2-(dimethylamino)-[1,2,4]triazolo[1,5-a]pyridin-7-yl)-1-methyl-4-(pyrrolidine-1-carbonyl)-1H-pyrazole-5-carboxamide]: the melting point was in the range of 199 to 201 °C. The half-inhibitory concentration (IC50) on human PDE10A full length stood at 4.46 nM.
Compound `CN(C)c1nc2cc(NC(=O)c3c(C(=O)N4CC(F)C4)cnn3C)ccn2n1` [Example 38, N-(2-(dimethylamino)-[1,2,4]triazolo[1,5-a]pyridin-7-yl)-4-(3-fluoroazetidine-1-carbonyl)-1-methyl-1H-pyrazole-5-carboxamide] yielded a melting point of 243 to 244 °C. Besides, the IC50 on human PDE10A full length was 19.6 nM.
The matching figures for `CCN(CC)C(=O)c1cnn(C)c1C(=O)Nc1ccn2nc(N3CCOCC3)nc2c1` [Example 39, N4,N4-diethyl-1-methyl-N5-(2-morpholino-[1,2,4]triazolo[1,5-a]pyridin-7-yl)-1H-pyrazole-4,5-dicarboxamide]: 165 to 167 °C and 22.4 nM.
For `CN(C)C(=O)c1cnn(C)c1C(=O)Nc1ccn2nc(N3CCOCC3)nc2c1` [Example 40, N4,N4,1-trimethyl-N5-(2-morpholino-[1,2,4]triazolo[1,5-a]pyridin-7-yl)-1H-pyrazole-4,5-dicarboxamide], the melting point fell in the range of 237 to 240 °C. In addition, the IC50 on human PDE10A full length was found to be 7.14 nM.
`CCN(C)C(=O)c1cnn(C)c1C(=O)Nc1ccn2nc(N3CCOCC3)nc2c1` [Example 41, N4-ethyl-N4,1-dimethyl-N5-(2-morpholino-[1,2,4]triazolo[1,5-a]pyridin-7-yl)-1H-pyrazole-4,5-dicarboxamide] gave a melting point of 201 to 203 °C. Moreover, on human PDE10A full length, the half-maximal inhibitory concentration (IC50) turned out to be 6.68 nM.
Compound `Cn1ncc(C(=O)N2CCC2)c1C(=O)Nc1ccn2nc(-c3cccnc3)nc2c1` [Example 44, 4-(Azetidine-1-carbonyl)-1-methyl-N-(2-(pyridin-3-yl)-[1,2,4]triazolo[1,5-a]pyridin-7-yl)-1H-pyrazole-5-carboxamide] had a melting point of 253 to 254 °C. In addition, the IC50 on human PDE10A full length is 5.79 nM.
`Cn1ncc(C(=O)N2CCOCC2)c1C(=O)Nc1ccn2nc(-c3cccnc3)nc2c1` [Example 45, 1-Methyl-4-(morpholine-4-carbonyl)-N-(2-(pyridin-3-yl)-[1,2,4]triazolo[1,5-a]pyridin-7-yl)-1H-pyrazole-5-carboxamide] had a melting point of 218 to 220 °C. Besides, the IC50 on human PDE10A full length came to 4.29 nM.
`Cn1ncc(C(=O)N2CCCC2)c1C(=O)Nc1ccn2nc(-c3cccnc3)nc2c1` [Example 46, 1-Methyl-N-(2-(pyridin-3-yl)-[1,2,4]triazolo[1,5-a]pyridin-7-yl)-4-(pyrrolidine-1-carbonyl)-1H-pyrazole-5-carboxamide]: the melting point fell in the range of 226 to 228 °C. The IC50 on human PDE10A full length was 1.17 nM.
As for `Cn1ncc(C(=O)N2CC(F)C2)c1C(=O)Nc1ccn2nc(-c3cccnc3)nc2c1` [Example 47, 4-(3-Fluoroazetidine-1-carbonyl)-1-methyl-N-(2-(pyridin-3-yl)-[1,2,4]triazolo[1,5-a]pyridin-7-yl)-1H-pyrazole-5-carboxamide], the melting point was 247 to 249 °C. Moreover, the concentration for half-maximal inhibition (IC50) on human PDE10A full length is 1.24 nM.
The compound `CN(C(=O)c1cnn(C)c1C(=O)Nc1ccn2nc(-c3ccccc3)nc2c1)C1CC1` [Example 48, 2-Methyl-2H-pyrazole-3,4-dicarboxylic acid 4-(cyclopropyl-methyl-amide)3-[(2-phenyl-[1,2,4]triazolo[1,5-a]pyridin-7-yl)-amide]] registered a melting point of 156 to 157 °C. At human PDE10A full length, the IC50 turned out to be 0.98 nM.
On to `CN(CC(F)(F)F)C(=O)c1cnn(C)c1C(=O)Nc1ccn2nc(-c3ccccc3)nc2c1` [Example 49, 2-Methyl-2H-pyrazole-3,4-dicarboxylic acid 4-[methyl-(2,2,2-trifluoro-ethyl)-amide]3-[(2-phenyl-[1,2,4]triazolo[1,5-a]pyridin-7-yl)-amide]], for which the melting point is above 250 °C. Further, on human PDE10A full length, the IC50 was 0.84 nM.
In turn, `CC(C)c1nc2cc(NC(=O)c3c(C(=O)N4CCC4)cnn3C)ccn2n1` [Example 50, 4-(Azetidine-1-carbonyl)-2-methyl-2H-pyrazole-3-carboxylic acid (2-isopropyl-[1,2,4]triazolo[1,5-a]pyridin-7-yl)-amide] gave a melting point of 226 to 227 °C. Moreover, the IC50 on human PDE10A full length turned out to be 47.3 nM.
As to `CC(C)c1nc2cc(NC(=O)c3c(C(=O)N4CC(F)C4)cnn3C)ccn2n1` [Example 51, 4-(3-Fluoro-azetidine-1-carbonyl)-2-methyl-2H-pyrazole-3-carboxylic acid (2-isopropyl-[1,2,4]triazolo[1,5-a]pyridin-7-yl)-amide], the melting point was 226 to 227 °C. For the same compound, the half-maximal inhibitory concentration (IC50) on human PDE10A full length was 42 nM.
`CN(C(=O)c1cnn(C)c1C(=O)Nc1ccn2nc(N3CCOCC3)nc2c1)C1CCCC1` [Example 52, N4-cyclopentyl-N4,1-dimethyl-N5-(2-morpholino-[1,2,4]triazolo[1,5-a]pyridin-7-yl)-1H-pyrazole-4,5-dicarboxamide] displayed a melting point of 222 to 224 °C. In addition, the half-maximal inhibitory concentration (IC50) on human PDE10A full length came to 57.4 nM.
Compound `CN(CCF)C(=O)c1cnn(C)c1C(=O)Nc1ccn2nc(-c3cccnc3)nc2c1` [Example 56, 2-Methyl-2H-pyrazole-3,4-dicarboxylic acid 4-[(2-fluoro-ethyl)-methyl-amide]3-[(2-pyridin-3-yl-[1,2,4]triazolo[1,5-a]pyridin-7-yl)-amide]] yielded a melting point of 200 to 208 °C. Further, at human PDE10A full length, the IC50 came out at 3.69 nM.
In turn, `CCN(C)c1nc2cc(NC(=O)c3c(C(=O)N4CCC4)cnn3C)ccn2n1` [Example 58, 4-(Azetidine-1-carbonyl)-2-methyl-2H-pyrazole-3-carboxylic acid [2-(ethyl-methyl-amino)-[1,2,4]triazolo[1,5-a]pyridin-7-yl]-amide] displayed a melting point of 229 to 232 °C. The IC50 on human PDE10A full length is 7.03 nM.
The compound `CCN(C)c1nc2cc(NC(=O)c3c(C(=O)N4CCOCC4)cnn3C)ccn2n1` [Example 59, 2-Methyl-4-(morpholine-4-carbonyl)-2H-pyrazole-3-carboxylic acid [2-(ethyl-methyl-amino)-[1,2,4]triazolo[1,5-a]pyridin-7-yl]-amide] gave a melting point of 167 to 169 °C. At human PDE10A full length, the concentration for half-maximal inhibition (IC50) is 7.97 nM.
